The values below come from patent publication US7482379B2, “Propenoyl hydrazides” (priority 2004, dated 2009).

Peptide text beside a SMILES is read from it. * marks the point of attachment. AFC = O=c1cc(C(F)(F)F)c2ccc(N*)cc2o1

One assay concerns the target T1, Caspase-2 (Homo sapiens, UniProt P42575).
T1 sequence (P42575 170-333 limits assumed): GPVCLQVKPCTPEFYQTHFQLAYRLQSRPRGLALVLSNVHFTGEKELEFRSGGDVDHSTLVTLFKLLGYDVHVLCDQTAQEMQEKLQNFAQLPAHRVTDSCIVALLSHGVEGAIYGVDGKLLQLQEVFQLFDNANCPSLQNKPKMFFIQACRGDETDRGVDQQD
T1 sequence (P42575 348-452 limits assumed): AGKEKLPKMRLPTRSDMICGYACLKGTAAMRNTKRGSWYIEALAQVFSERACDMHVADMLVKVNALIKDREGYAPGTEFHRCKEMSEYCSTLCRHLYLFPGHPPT
Nature of the assay: Caspase-2 progress curve inhibition assay. The following applies: second-order rate constant; Cbz-VDVAD-AFC substrate; Pipes buffer pH 7.2.

The target of another assay is T2, Caspase-3 (Homo sapiens, UniProt P42574).
T2 sequence (P42574 29-175 limits assumed): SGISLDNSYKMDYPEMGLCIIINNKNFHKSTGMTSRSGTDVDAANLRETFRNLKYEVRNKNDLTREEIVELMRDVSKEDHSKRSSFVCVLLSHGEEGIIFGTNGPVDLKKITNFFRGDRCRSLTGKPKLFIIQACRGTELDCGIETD
T2 sequence (P42574 176-277 limits assumed): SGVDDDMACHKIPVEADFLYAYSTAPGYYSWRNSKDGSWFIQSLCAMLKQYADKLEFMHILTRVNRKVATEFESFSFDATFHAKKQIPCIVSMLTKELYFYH
The assay is described as follows: Caspase-3 progress curve inhibition assay. Particulars: for k2 Caspase-3: second-order rate constant, Ac-DEVD-AMC substrate, Pipes buffer pH 7.2.

The target of another assay is T3, Caspase-6 (Homo sapiens, UniProt P55212).
T3 sequence (P55212 24-179 limits assumed): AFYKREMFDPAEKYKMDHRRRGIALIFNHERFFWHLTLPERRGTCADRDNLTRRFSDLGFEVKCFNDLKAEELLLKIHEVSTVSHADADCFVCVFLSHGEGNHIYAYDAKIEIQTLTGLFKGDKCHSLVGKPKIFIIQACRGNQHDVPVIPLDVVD
T3 sequence (P55212 194-293 limits assumed): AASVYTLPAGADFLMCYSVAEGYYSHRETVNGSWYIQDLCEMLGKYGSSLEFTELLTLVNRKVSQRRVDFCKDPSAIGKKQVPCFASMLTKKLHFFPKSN
Nature of the assay: Caspase-6 progress curve inhibition assay. Particulars: second-order rate constant; Ac-DEVD-AMC substrate; Pipes buffer pH 7.2.

A further assay has as its target T4, Caspase-7 (Homo sapiens, UniProt P55210).
T4 sequence (P55210 24-198 limits assumed): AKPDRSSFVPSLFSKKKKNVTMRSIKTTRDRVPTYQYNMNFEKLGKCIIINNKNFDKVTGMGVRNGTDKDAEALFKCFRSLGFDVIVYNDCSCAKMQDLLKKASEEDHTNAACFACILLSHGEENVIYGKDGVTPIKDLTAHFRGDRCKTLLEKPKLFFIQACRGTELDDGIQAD
T4 sequence (P55210 207-303 limits assumed): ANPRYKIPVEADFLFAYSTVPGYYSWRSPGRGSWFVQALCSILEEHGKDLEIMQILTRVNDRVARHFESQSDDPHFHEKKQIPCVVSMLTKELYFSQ
The assay is described as follows: Caspase-7 progress curve inhibition assay. The following applies: second-order rate constant; Ac-DEVD-AMC substrate; Pipes buffer pH 7.2.

The next assay addresses Caspase-8 (Homo sapiens, UniProt Q14790). Nature of the assay: Caspase-8 progress curve inhibition assay. Particulars: second-order rate constant; Ac-DEVD-AMC substrate; Pipes buffer pH 7.2.
The next assay has as its target T5, Caspase-9 (Homo sapiens, UniProt P55211).
T5 sequence (P55211 1-315 limits assumed): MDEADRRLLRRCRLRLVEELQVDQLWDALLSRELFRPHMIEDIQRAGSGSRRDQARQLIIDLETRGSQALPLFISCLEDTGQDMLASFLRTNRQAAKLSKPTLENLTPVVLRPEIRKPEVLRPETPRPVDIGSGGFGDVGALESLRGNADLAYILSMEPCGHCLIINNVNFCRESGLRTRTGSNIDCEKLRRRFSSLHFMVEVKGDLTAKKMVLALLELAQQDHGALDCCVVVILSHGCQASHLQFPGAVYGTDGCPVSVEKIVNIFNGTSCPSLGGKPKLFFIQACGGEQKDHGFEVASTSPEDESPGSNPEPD
T5 sequence (P55211 331-416 limits assumed): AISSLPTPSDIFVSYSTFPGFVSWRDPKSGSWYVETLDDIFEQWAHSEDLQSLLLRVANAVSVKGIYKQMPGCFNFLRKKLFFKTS
The assay is described as follows: Caspase-9 progress curve inhibition assay. The following applies: for k2 Caspase-9: second-order rate constant, Ac-LEHD-AFC substrate, Hepes buffer pH 7.0 with 0.7 M sodium citrate.

The next assay concerns the target T6, Caspase-10 (Homo sapiens, UniProt Q92851).
T6 sequence (Q92851 220-415 limits assumed): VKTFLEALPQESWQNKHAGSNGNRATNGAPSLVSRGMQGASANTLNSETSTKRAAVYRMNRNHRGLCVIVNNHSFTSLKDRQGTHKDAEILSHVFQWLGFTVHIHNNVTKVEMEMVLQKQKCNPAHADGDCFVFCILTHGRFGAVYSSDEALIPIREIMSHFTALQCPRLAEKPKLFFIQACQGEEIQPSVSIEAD
T6 sequence (Q92851 416-521 limits assumed): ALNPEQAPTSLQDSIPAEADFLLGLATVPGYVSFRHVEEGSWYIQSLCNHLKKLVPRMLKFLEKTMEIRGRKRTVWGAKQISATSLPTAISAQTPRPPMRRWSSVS
The assay is described as follows: Caspase-10 progress curve inhibition assay. Particulars: second-order rate constant; Ac-DEVD-AMC substrate; Hepes/PEG buffer pH 7.0.

Caspase-8, sequence (Q14790 217-374 limits assumed): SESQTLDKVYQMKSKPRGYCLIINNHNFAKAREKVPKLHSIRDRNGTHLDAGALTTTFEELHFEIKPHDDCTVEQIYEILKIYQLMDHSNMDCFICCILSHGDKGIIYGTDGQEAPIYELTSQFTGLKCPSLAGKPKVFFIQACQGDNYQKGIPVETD
Caspase-8, sequence (Q14790 385-479 limits assumed): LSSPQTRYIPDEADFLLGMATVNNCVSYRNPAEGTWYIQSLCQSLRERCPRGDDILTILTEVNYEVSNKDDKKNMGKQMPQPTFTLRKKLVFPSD
Description for Caspase-2: Inhibition rates were determined by the progress curve method known in the art. This method is suitable for measuring irreversible inhibition rates with fast inhibitors, where the inhibitor, the substrate and the enzyme are incubated together and the rate of substrate hydrolysis is measured continuously. The rate of substrate hydrolysis in the presence of the inhibitor was monitored for 20 minutes. The progress curve of inhibition, where the product formation approaches an asymptote is described in the equation ln([P∞]−[P])=ln[P∞]−A[I]t where [P] and [P∞] are the product concentrations at t and t=∞ respectively, A is the apparent rate constant in the presence of the substrate. The apparent rate constants were determined from the slopes of plots of ln ([P∞]−[P]) versus time (t) in seconds as previously described, where A=slope/[I].
For competitive and irreversible inhibition, the apparent rate constant is converted to the second order rate constant k2 by taking into consideration the effect of the substrate concentration on the apparent rate constant. The second order rate constant is described as in the equation: k2=A*(1+[S]/KM)
The concentration of the caspase-3 stock solution was 2 nM in the assay buffer. Assay buffer is a 1:1 mixture of caspase buffer (40 mM Pipes, 200 mM NaCl, 0.2% (w/v) CHAPS, sucrose 20% (w/v)) and 20 mM DTT solution in H2O at pH 7.2. The concentration of the substrate stock solution was 2 mM in DMSO. The enzyme was pre-activated for 10 min at 37° C. in the assay buffer. […] 50 μL of 2 nM enzyme stock solution (final concentration: 1 nM) was added to the mixture after 1 min and reading started immediately for 20 min at 37° C. Inhibition experiments were repeated in duplicate and standard deviations determined.
The inhibitor stock solution concentrations varied from 5×10^−3 M to 1×10^−4 M in DMSO.

As for `CC(C)C[C@H](NC(=O)OCc1ccccc1)C(=O)N[C@@H](CCC(=O)O)C(=O)N[C@H](C(=O)NN(CC(=O)O)C(=O)/C=C/C(=O)NCCc1ccccc1)[C@@H](C)O` (relative stereo) [Cbz-Leu-Glu-Thr-AAsp-CH═CH—CONHCH2CH2Ph, N^2—(N-Benzyloxycarbonylleucylglutamylthreonyl)-N^1-carboxylmethyl-N^1-trans-(3-phenylethylcarbamoylpropenoyl)hydrazine], the “k2 Caspase-2” value at Caspase-2 was 110 M⁻¹ s⁻¹. Moreover, on Caspase-3, the “k2 Caspase-3” value is listed as 5,400 M^−1s^−1. In addition, the “k2 Caspase-6” value at Caspase-6 was 2,150 M^−1s^−1. Moreover, the “k2 Caspase-7” value at Caspase-7 was 440 M⁻¹ s⁻¹. For the same molecule, the “k2 Caspase-8” value at Caspase-8 is 121,000 M^−1s^−1. Further, the “k2 Caspase-9” value on Caspase-9 is reported as 1,760 M^−1s^−1. The “k2 Caspase-10” value on Caspase-10 is listed as 17,900 M^−1s^−1.

As for `CC(C)[C@H](NC(=O)[C@H](CCC(=O)O)NC(=O)[C@H](CC(=O)O)NC(=O)OCc1ccccc1)C(=O)NN(CC(=O)O)C(=O)/C=C/C(=O)N(Cc1ccccc1)Cc1ccccc1` (relative stereo) [Cbz-Asp-Glu-Val-AAsp-CH═CH—CON(CH2Ph)2, N^2—(N-Benzyloxycarbonylaspartylglutamylvalyl)-N^1-carboxymethyl-N^1-trans-(3-dibenzylcarbamoylpropenoyl)hydrazine], on Caspase-2, the “k2 Caspase-2” value turned out to be 110 M⁻¹ s⁻¹. Besides, the “selectivity: inhibits caspase-3 more potently than caspase-6” value on Caspase-3 (ratio of k2 caspase-3 to caspase-6) amounted to 588 fold. For the same molecule, the “selectivity: inhibits caspase-3 more potently than caspase-8” value on Caspase-3 (ratio of k2 caspase-3 to caspase-8) is recorded as 348 fold. On Caspase-3 (listed as Cbz-Asp-Glu-Val-AAsp-CH═CH—CON(Bzl)2), the “k2 Caspase-3” value is 3,000,000 M^−1s^−1. Besides, on Caspase-6, the “k2 Caspase-6” value was 5,100 M^−1s^−1. Also, the “k2 Caspase-7” value at Caspase-7 is 359,000 M^−1s^−1. Besides, the “k2 Caspase-8” value on Caspase-8 is 8,600 M^−1s^−1. In addition, the “k2 Caspase-9” value at Caspase-9 is 450 M⁻¹ s⁻¹. The “k2 Caspase-10” value at Caspase-10 is on record as 6,300 M^−1s^−1.

In the case of `CCOC(=O)/C=C/C(=O)N(CC(=O)O)NC(=O)[C@@H](NC(=O)OCc1ccccc1)C(C)C` (stereo in doubt) [Cbz-Val-AAsp-CH═CH—COOEt, N^2—(N-Benzyloxycarbonylvalyl)-N^1-carboxymethyl-N^1-trans-(3-ethoxycarbonylpropenoyl)hydrazine], the “k2 Caspase-3” value at Caspase-3 is listed as 8,000 M^−1s^−1. Further, the “k2 Caspase-7” value on Caspase-7 is 2,680 M^−1s^−1. Further, the “k2 Caspase-9” value at Caspase-9 was 5,240 M^−1s^−1. In addition, the “k2 Caspase-10” value on Caspase-10 was found to be 389 M⁻¹ s⁻¹.

As to `CC[C@H](C)[C@H](NC(=O)OCc1ccccc1)C(=O)N[C@@H](CCC(=O)O)C(=O)N[C@H](C(=O)NN(CC(=O)O)C(=O)/C=C/C(=O)Nc1ccccc1)[C@@H](C)O` (relative stereo) [Cbz-Ile-Glu-Thr-AAsp-CH═CH—CONHPh, N^2—(N-Benzyloxycarbonylisoleucylglutamylthreonyl)-N^1-carboxylmethyl-N^1-trans-(3-phenylcarbamoylpropenoyl)hydrazine], the “k2 Caspase-2” value on Caspase-2 is 365 M⁻¹ s⁻¹. Moreover, the “k2 Caspase-3” value at Caspase-3 is 7,030 M^−1s^−1. For the same molecule, at Caspase-6, the “k2 Caspase-6” value was 99,200 M^−1s^−1. In addition, at Caspase-7, the “k2 Caspase-7” value is 920 M⁻¹ s⁻¹. For the same molecule, at Caspase-8, the “k2 Caspase-8” value is recorded as 245,000 M^−1s^−1. In addition, the “k2 Caspase-9” value at Caspase-9 came out at 940 M⁻¹ s⁻¹. In addition, the “k2 Caspase-10” value at Caspase-10 is given as 9,210 M^−1s^−1.

In the case of `CC(C)[C@H](NC(=O)OCc1ccccc1)C(=O)NN(CC(=O)O)C(=O)/C=C/C(=O)NCc1ccccc1` (stereo in doubt) [Cbz-Val-AAsp-CH═CH—CONHCH2Ph, N^1-trans-(3-Benzylcarbamoylpropenoyl)-N^2—(N-benzyloxycarbonylvalyl)-N^1-carboxymethylhydrazine], on Caspase-3, the “k2 Caspase-3” value was 185 M⁻¹ s⁻¹. The “k2 Caspase-7” value at Caspase-7 is 60 M⁻¹ s⁻¹. The “k2 Caspase-9” value on Caspase-9 came to 20 M⁻¹ s⁻¹.

In the case of `CCCCNC(=O)/C=C/C(=O)N(CC(=O)O)NC(=O)[C@@H](NC(=O)OCc1ccccc1)C(C)C` (stereo in doubt) [Cbz-Val-AAsp-CH═CH—CONH-nBu, N^2—(N-Benzyloxycarbonylvalyl)-N^1-trans-(3-butylcarbamoylpropenoyl)-N^1-carboxymethylhydrazine], the “k2 Caspase-3” value on Caspase-3 came out at 184 M⁻¹ s⁻¹. Further, the “k2 Caspase-7” value on Caspase-7 came to 55 M⁻¹ s⁻¹. Also, on Caspase-9, the “k2 Caspase-9” value was 32 M⁻¹ s⁻¹.

With `CC[C@H](C)[C@H](NC(=O)OCc1ccccc1)C(=O)N[C@@H](CCC(=O)O)C(=O)N[C@H](C(=O)NN(CC(=O)O)C(=O)/C=C/C(=O)N(C)CCc1ccccc1)[C@@H](C)O` (relative stereo) [N^2—(N-Benzyloxycarbonylisoleucylglutamylthreonyl)-N^1-carboxylmethyl-N^1-trans-(3-methylphenylethylcarbamoylpropenoyl)hydrazine], the “k2 Caspase-2” value at Caspase-2 was 38 M⁻¹ s⁻¹. The “k2 Caspase-3” value on Caspase-3 is 5,480 M^−1s^−1. Besides, the “k2 Caspase-7” value at Caspase-7 is on record as 1,020 M^−1s^−1. Further, the “k2 Caspase-8” value on Caspase-8 was 60,500 M^−1s^−1. On Caspase-9, the “k2 Caspase-9” value was found to be 760 M⁻¹ s⁻¹. Further, the “k2 Caspase-10” value on Caspase-10 was 8,770 M^−1s^−1.

Regarding `CC(C)C[C@H](NC(=O)OCc1ccccc1)C(=O)N[C@@H](CCC(=O)O)C(=O)N[C@H](C(=O)NN(CC(=O)O)C(=O)/C=C/C(=O)OCc1ccccc1)[C@@H](C)O` (relative stereo) [Cbz-Leu-Glu-Thr-AAsp-CH═CH—COOCH2Ph, N^1-trans-(3-Benzyloxycarbonylpropenoyl)-N^2—(N-benzyloxycarbonylleucylglutamylthreonyl)-N^1-carboxymethylhydrazine], the “k2 Caspase-2” value on Caspase-2 worked out at 480 M⁻¹ s⁻¹. In addition, the “k2 Caspase-3” value at Caspase-3 is 4,600 M^−1s^−1. Moreover, the “k2 Caspase-6” value at Caspase-6 is listed as 47,600 M^−1s^−1. On Caspase-7, the “k2 Caspase-7” value is listed as 1,570 M^−1s^−1. Besides, the “k2 Caspase-8” value at Caspase-8 is 98,400 M^−1s^−1. At Caspase-10, the “k2 Caspase-10” value is recorded as 18,900 M^−1s^−1.

With `CC(C)[C@H](NC(=O)OCc1ccccc1)C(=O)NN(CC(=O)O)C(=O)/C=C\Cl` (stereo in doubt) [Cbz-Val-AAsp-CH═CH—Cl, N^2—(N-Benzyloxycarbonylvalyl)-N^1-carboxymethyl-N^1-cis-(3-chloropropenoyl)hydrazine], the “k2 Caspase-9” value at Caspase-9 is 15 M⁻¹ s⁻¹.

Turning to `CC(=O)N[C@@H](CC(C)C)C(=O)N[C@@H](CCC(=O)O)C(=O)N[C@@H](Cc1cnc[nH]1)C(=O)N[C@@H](CC(=O)O)C(=O)Nc1ccc2c(C(F)(F)F)cc(=O)oc2c1` [Ac-LEHD-AFC, reference compound] (Ac-LEHD-{AFC}), the Michaelis constant (Km) at Caspase-9 (read-out: KM with caspase-9, substrate Ac-LEHD-AFC) worked out at 114 µM.

In the case of `CC(C)[C@H](NC(=O)OCc1ccccc1)C(=O)NN(CC(=O)O)C(=O)/C=C/c1ccc(Cl)cc1` (stereo in doubt) [Cbz-Val-AAsp-CH═CH-4-Cl—Ph, N^2—(N-Benzyloxycarbonylvalyl)-N^1-carboxymethyl-N^1-trans-(3-(4-chlorophenyl)propenoyl)hydrazine], the “k2 Caspase-9” value on Caspase-9 came out at 19 M⁻¹ s⁻¹.
